The source of these data is patent publication US7220730B2, “Cancer specific radiolabeled conjugates regulated by the cell cycle for the treatment and diagnosis of cancer” (Board of Regents of the University of Nebraska, priority 2003, dated 2007).

The target in data set [1] is T1, sex hormone binding globulin (SHBG) (Homo sapiens, UniProt P04278).
T1 sequence (P04278 30-402): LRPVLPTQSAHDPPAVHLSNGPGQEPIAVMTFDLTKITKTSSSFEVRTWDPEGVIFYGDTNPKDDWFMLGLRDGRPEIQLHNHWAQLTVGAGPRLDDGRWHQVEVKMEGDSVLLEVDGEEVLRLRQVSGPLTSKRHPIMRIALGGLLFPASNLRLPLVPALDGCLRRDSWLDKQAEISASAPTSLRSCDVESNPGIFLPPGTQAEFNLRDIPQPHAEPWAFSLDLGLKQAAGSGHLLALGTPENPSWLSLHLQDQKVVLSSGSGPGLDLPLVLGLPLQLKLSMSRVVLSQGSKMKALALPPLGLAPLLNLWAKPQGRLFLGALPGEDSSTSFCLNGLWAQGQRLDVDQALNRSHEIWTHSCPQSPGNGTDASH
Put plainly: Binding of 5′-MP-^125IUdR-3′-DHT to sex hormone binding globulin (charcoal-dextran, size-exclusion HPLC). As to conditions: FIG. 3. The procedure:
The tubes were then vortexed for about 30 seconds and incubated for 10 minutes in a water bath at 37° C. The samples were then incubated at 0–4° C. for 3 hours. 0.1 mL aliquots were removed from the samples and counted in a gamma counter. To each tube, 0.4 mL of ice-cold charcoal-dextran solution was added and the tubes were incubated on ice for 15 minutes. The samples were then centrifuged at 4° C. for 20 minutes at 1,000 rpm. 0.5 ml aliquots were taken for gamma-counting and the residue was also counted. Selected samples were analyzed by size-exclusion HPLC (tandem TSK2000 and TSK3000 size exclusion columns (TosoHaas; Montgomeryville, Pa.) with a guard column using PBS, pH7.2 as the eluant).
Background: In gel filtration, larger molecules generally elute earlier.

Data set [2] can be described thus: Hydrophobicity / aqueous solubility of the conjugates (descriptive). The class given is physicochemical.
The subject of data set [3] is OVCAR-3 cells. As to the kind of experiment: Stability of ^125IUdR-DHT in growth medium in the presence or absence of OVCAR-3 cells (TLC). The class given is in vitro ADME. The protocol: OVCAR-3 cells in full growth medium (RPMI 1640 medium with 2 mM L-glutamine adjusted to contain 1.5 g/L sodium bicarbonate, 4.5 g/L glucose, 10 mM HEPES, and 1.0 mM sodium pyruvate and supplemented with 0.01 mg/ml bovine insulin, 80%; fetal bovine serum, 20%) at 1×10^6 cells per flask were plated onto three Petri dishes and allowed to attach for 24 hours. As a control, one dish without cells was subjected to the same treatments. After 24 hours, the cells were trypsinized from one dish to determine cell number and viability. The media was then aspirated from the remaining dishes, including the control, and replaced with 1 mL of fresh media. 0.1 mCi of ^125IUdR-DHT in 0.10 mL of ethanol was added to all of the dishes. The dishes were incubated at 37° C. At 0, 5, 15, 30, 60, 120, 180, and 240 minutes, 10 μL of media was removed from each of the dishes of which 2 μL was added to a silica gel TLC plate. Additionally, 2 μL was added to glass gamma counter tubes as standards. The TLC plates were run with a 3:1 mixture of ethyl acetate and hexane (v/v). When the solvent front approached the end of the plate, the plate was removed from the solvent, dried, and cut into strips. The standards and the strips were then counted. The percent recovered ^125IUdR-DHT was calculated as a ratio of the intact ^125IUdR-DHT at a given timepoint divided by the intact ^125IUdR-DHT at the 0 minute timepoint (see FIG. 2A). Similar calculations were used to determine the kinetics of the appearance of ^125IUdR in the medium, which was determined to occur at a rate of 8.5%/hour (FIG. 2B). This rate is in comparison to the disappearance of ^125IUdR-DHT from the media at a rate of 16%/hour. […] The inclusion of a negatively-charged monophosphate assists in the retention of these compounds in the cell.
This allows at least a partial retention of the negatively charged succinate inside the cell where the next hydrolytic step frees ^125IUdR to be taken up by DNA.

For data set [4], the system named is intraperitoneal OVCAR-3 tumors. As to the kind of experiment: Efficacy against intraperitoneal OVCAR-3 tumors after 6 fractionated doses. The class given is in vivo, athymic mice. The settings on record: 0.1 mCi/dose/mouse. From the text: (§1) With regard to ^125IUdR-3′-DHT, the biodistribution of the reagent (0.001–0.010 mCi/mouse; […]) in athymic mice bearing AR-expressing OVCAR-3 tumors is seen in Table 3. Additionally, the efficacy of the reagent against the intraperitoneal OVCAR-3 tumors after 6 fractionated doses (0.1 mCi/dose/mouse; […]) is seen in Table 4.

Data set [5] relates to OVCAR-3 cells. Put plainly: Binding of ^125IUdR-DHT to OVCAR-3 cells in vitro (Scatchard plot, with/without excess cold DHT). The procedure:
To generate a Scatchard plot for the binding of ^125IUdR-DHT to OVCAR-3 cells, OVCAR-3 cells were thawed from a stock or freshly harvested by a lavage of the peritoneal cavity of athymic mice bearing intraperitoneal ascites OVCAR-3 tumors. The cells were twice washed with full media (RPMI 1640 medium with 2 mM L-glutamine adjusted to contain 1.5 g/L sodium bicarbonate, 4.5 g/L glucose, 10 mM HEPES, and 1.0 mM sodium pyruvate and supplemented with 0.01 mg/ml bovine insulin, 80%; fetal bovine serum, 20%). The cells were spun at 450 rpm for 10 minutes to collect a cell pellet and were then resuspended in full media to achieve approximately 5×10^6 cells/mL. The cells were counted and their viability was determined by Trypan Blue staining. “Cold” dihydrotestosterone (DHT) was dissolved in 95% ethanol to create a stock solution of 5 μg/mL. Similarly, 95% ethanol was added to ^125IUdR-DHT to produce 250,000 cpm/100 μL.
The tubes were capped and gently vortexed. The “total applied” counts were then determined in a gamma counter. […] A known volume of the supernatant from the centrifugation was transfered to new plastic tubes and counted in a gamma counter to determine the “free” counts. The cell pellet with the remainder of the supernatant was then counted in the gamma counter. “Bound” counts were then determined by subtracting counts associated with the supernatant from the remaining counts.

A short description of data set [6]: Biodistribution in athymic mice bearing AR-expressing OVCAR-3 tumors. The class given is in vivo.
Source text: as §1

Setting [7] is: OVCAR-3 cells, full growth medium, 37° C.

`CC12CCC(=O)CC1CCC1C2CCC2(C)C(OC(=O)CCC(=O)OC3CC(n4cc([125I])c(=O)[nH]c4=O)OC3COP(=O)(O)O)CCC12` (stereo not shown) [5′-MP-^125IUdR-3′-DHT, 5′-monophosphate-^125IUdR-3′-succinyl-DHT]: in data set [1], the “binding to SHBG” value is “specifically bound” and the “competition of SHBG binding by “cold” DHT” value is recorded as “competed away”.
Turning to `CC12CCC(=O)CC1CCC1C2CCC2(C)C(OP(=O)(OCC3OC(n4cc([125I])c(=O)[nH]c4=O)CC3O)OC3CCC4C5CCC6CC(=O)CCC6(C)C5CCC34C)CCC12` (stereo not shown) [Conjugate 5, 5′-[^125I]iodo-2′-deoxy-5′-monphosphate-O-(bis-dihydrotestosterone)], the “hydrophilicity / hydrophobicity relative to the other conjugates” value in data set [2] is “most hydrophobic”.
Regarding `CC12CCC(=O)CC1CCC1C2CCC2(C)C(OC(=O)CCC(=O)OC3CC(n4cc([125I])c(=O)[nH]c4=O)OC3CO)CCC12` (stereo not shown) [^125IUdR-DHT, ^125IUdR-3′-succinyl-DHT], the “rate of appearance of ^125IUdR in the medium” value with OVCAR-3 cells [3] (setting [7]) came out at 8.5 %/hour. The “rate of disappearance of ^125IUdR-DHT from the media” value with OVCAR-3 cells [3] (setting [7]) was found to be 16 %/hour. Also, the “emergence of “free” ^125IUdR in the growth medium” value with OVCAR-3 cells [3] (presence or absence of OVCAR-3 cells) is “requires interaction of the drugs with specific cells”. The molecule further registered a median tumor size in data set [4] of 0.244 g. Besides, the “range (tumor size)” value in data set [4] fell in the range of 0.012 to 0.781 g. The same molecule had a mean tumor burden in data set [4] (average (n = 10) and standard deviation) of 0.304 ± 0.320 g. For the same molecule, the “binding to OVCAR-3 cells (Scatchard)” value in the data set on OVCAR-3 cells [5] (5 × 10^6 cells, 0–4° C., 14–16 hours) is “single type of binding sites with a high affinity”. For the same molecule, the “competition by excess DHT for binding” value in the data set with OVCAR-3 cells [5] (excess “cold” DHT) is listed as “due to the DHT portion of the drug”. In addition, the “Percent injected dose per gram tissue” value in data set [6] (Blood, 1.5 h, average of n = 10) is given as 29.61 Percent injected dose per gram tissue; in data set [6] (Blood, 24 h, average of n = 10), 0.25 Percent injected dose per gram tissue; in data set [6] (Blood, 48 h, average of n = 10), 0.30 Percent injected dose per gram tissue; in data set [6] (Blood, 72 h, average of n = 10) it was 0.17 Percent injected dose per gram tissue; in data set [6] (Brain, 1.5 h), 1.91 Percent injected dose per gram tissue; in data set [6] (Brain, 24 h) it was 0.03 Percent injected dose per gram tissue. For the same molecule, the “Percent injected dose per gram tissue” value in data set [6] (Brain, 48 h) is listed as 0.05 Percent injected dose per gram tissue; in data set [6] (Brain, 72 h), 0.04 Percent injected dose per gram tissue; in data set [6] (Kidney, 1.5 h), 17.67 Percent injected dose per gram tissue; in data set [6] (Kidney, 24 h), 0.20 Percent injected dose per gram tissue; in data set [6] (Kidney, 48 h), 0.18 Percent injected dose per gram tissue; in data set [6] (Kidney, 72 h), 0.22 Percent injected dose per gram tissue. Also, the “Percent injected dose per gram tissue” value was 11.07 Percent injected dose per gram tissue in data set [6] (Liver, 1.5 h); 0.24 Percent injected dose per gram tissue in data set [6] (Liver, 24 h); 0.32 Percent injected dose per gram tissue in data set [6] (Liver, 48 h); 0.33 Percent injected dose per gram tissue in data set [6] (Liver, 72 h); 20.70 Percent injected dose per gram tissue in data set [6] (OVCAR-3 tumor (IP), 1.5 h); 5.66 Percent injected dose per gram tissue in data set [6] (OVCAR-3 tumor (IP), 24 h). The “Percent injected dose per gram tissue” value in data set [6] (OVCAR-3 tumor (IP), 48 h) is 5.41 Percent injected dose per gram tissue; in data set [6] (OVCAR-3 tumor (IP), 72 h), 3.54 Percent injected dose per gram tissue; in data set [6] (Spleen, 1.5 h) it was 15.60 Percent injected dose per gram tissue; in data set [6] (Spleen, 24 h), 0.59 Percent injected dose per gram tissue; in data set [6] (Spleen, 48 h) it was 0.44 Percent injected dose per gram tissue; in data set [6] (Spleen, 72 h), 0.59 Percent injected dose per gram tissue. Also, the “Percent injected dose per gram tissue” value in data set [6] (Uterus, 1.5 h) is recorded as 11.43 Percent injected dose per gram tissue; in data set [6] (Uterus, 24 h), 0.54 Percent injected dose per gram tissue; in data set [6] (Uterus, 48 h), 0.66 Percent injected dose per gram tissue; in data set [6] (Uterus, 72 h) it was 0.97 Percent injected dose per gram tissue; in data set [6] (solid OVCAR-3 (approximately 2 mice per group), 1.5 h), 12.94 Percent injected dose per gram tissue; in data set [6] (solid OVCAR-3 (approximately 2 mice per group), 24 h), 0.67 Percent injected dose per gram tissue. For the same molecule, the “Percent injected dose per gram tissue” value was 0.28 Percent injected dose per gram tissue in data set [6] (solid OVCAR-3 (approximately 2 mice per group), 48 h) and 0.24 Percent injected dose per gram tissue in data set [6] (solid OVCAR-3 (approximately 2 mice per group), 72 h).
